Experimental findings from US8283009B2, “Use of a material based on a thermoplastic polymer having a high content of antioxidants for packaging dianhydrohexitols” (Roquette Freres, priority 2007, dated 2012) are described below.

The nature of series [1]: Storage stability of isosorbide in sealed packaging sachets at 50° C., pH-metry. It counts as physicochemical. The text has this: 50 g of isosorbide in solid form (flakes) are introduced into a sachet (25 cm×25 cm) constituted of the packaging material to be tested. The sachet is immediately sealed by welding using an impulse heat sealer (model SZ 380 sold by Joisten & Kettenbaum GmbH & Co, Bergisch Gladbach, Germany). The thus sealed sachet is in turn introduced into a second sachet made of aluminum comprising a polyethylene coating, sealed by welding using the same heat sealer in order to ensure leaktightness with respect to the external atmosphere. The samples thus packaged are placed in a ventilated oven, thermostatted at a temperature of 50° C. A control sample is enclosed in a glass flask and stored under the same conditions.
After a given period, the whole of the sample of isosorbide is extracted from the packagings and dissolved to 40% by weight of solids in osmosed water. […]

The nature of series [2]: Analysis for peroxides on the packaged product after storage. The class given is physicochemical. Conditions: packaged in accordance with the invention (PE + carbon black); 50° C.; after 4 months of storage.

Consider `O[C@@H]1CO[C@H]2[C@@H]1OC[C@@H]2O` [isosorbide, 1,4:3,6-dianhydrosorbitol], for which the “drop in pH after storage” value in series [1] (packaged in accordance with the invention (PE + carbon black), after 4 months of storage) is “no drop in pH”. The “pH of the solution” value is reported as “pH 7.6” in series [1] (packaging PE + carbon black (according to the invention), storage 0 day, 40% by weight of solids in osmosed water); “pH 7.3” in series [1] (packaging PE + carbon black (according to the invention), storage 1 month, 40% by weight in osmosed water); “pH 7.4” in series [1] (packaging PE + carbon black (according to the invention), storage 1.5 month, 40% by weight in osmosed water); “pH 7.5” in series [1] (packaging PE + carbon black (according to the invention), storage 2 months, 40% by weight in osmosed water); “pH 7.2” in series [1] (packaging PE + carbon black (according to the invention), storage 2 weeks, 40% by weight in osmosed water); “pH 7.5” in series [1] (packaging PE + carbon black (according to the invention), storage 2.5 months, 40% by weight in osmosed water). The “pH of the solution” value in series [1] (packaging PE + carbon black (according to the invention), storage 3 months, 40% by weight in osmosed water) is “pH 7.6”; in series [1] (packaging PE + carbon black (according to the invention), storage 4 months, 40% by weight in osmosed water) it was “pH 7.7”; in series [1] (packaging Sachet 1 (comp.) branched/linear polyethylene 50%/50%, storage 0 day, 40% by weight in osmosed water) it was “pH 7.6”; in series [1] (packaging Sachet 1 (comp.) branched/linear polyethylene 50%/50%, storage 1 month, 40% by weight in osmosed water), “pH 7.4”; in series [1] (packaging Sachet 1 (comp.) branched/linear polyethylene 50%/50%, storage 1.5 month, 40% by weight in osmosed water) it was “pH 7.4”; in series [1] (packaging Sachet 1 (comp.) branched/linear polyethylene 50%/50%, storage 2 weeks, 40% by weight in osmosed water) it was “pH 7.5”. Besides, the “pH of the solution” value was “pH 7.6” in series [1] (packaging Sachet 2 (comp.) branched/linear polyethylene 70%/30%, storage 0 day, 40% by weight in osmosed water); “pH 7.5” in series [1] (packaging Sachet 2 (comp.) branched/linear polyethylene 70%/30%, storage 2 weeks, 40% by weight in osmosed water); “pH 7.6” in series [1] (packaging Sachet 3 (comp.) 100% of branched polyethylene, storage 0 day, 40% by weight in osmosed water); “pH 7.6” in series [1] (packaging Sachet 4 (comp.) 100% of linear polyethylene, storage 0 day, 40% by weight in osmosed water); “pH 7.2” in series [1] (packaging Sachet 4 (comp.) 100% of linear polyethylene, storage 2 weeks, 40% by weight in osmosed water). The odor after storage result in series [1] (samples not packaged in accordance with the invention, glass 4 months, sachet 1 2 months, sachets 2 and 4 1 month, sachet 3 2 weeks) is recorded as “characteristic odor of formic acid”. Further, the “presence of peroxides (markers of oxidation phenomena, instability)” value in series [2] is on record as “did not show any presence of peroxides”.
